Patent US20240254082A1, “Substituted Isoindoline-1, 3-diketone PDE4 Inhibitor and Pharmaceutical Application Thereof” (SUZHOU INTRAGRAND PHARMA CO., LTD, priority 2021, published 2024)

Columns and labels:
Format in all cases: biochemical
PDE4D3 = PDE4D3 (Homo sapiens, UniProt Q08499); experiment: Inhibition assay of PDE4D3 enzyme (TR-FRET kit)
Protocol: 2. Inhibition assay of PDE4D3 enzyme:
(§1) Materials and Instruments:
FAM substrate: A stock solution of 20 μM FAM substrate was diluted to 200 nM with PDE assay buffer. 12.5 μL of the diluted substrate was added to each reaction well.
(§2) 5 μL of the compound stock solution was added to 45 μL of DMSO to prepare a 1 mM diluent. 5 μL of the 1 mM diluent was added to 45 μL of PDE assay buffer to prepare a gradient dilution starting point. Then, according to the method of adding 5 μL of the previous concentration solution to 15 μL of PDE assay buffer, gradient dilution was carried out for 9 times to prepare compound working solutions with 10 concentrations. The working solutions were added to compound wells at 2.5 μL/well.
PDE4D3: 0.054 μL of a PDE4D3 recombinase stock solution was added to 1500 μL of PDE buffer, and the mixture was added to all compound wells and positive control wells at 10 μL/well. 10 μL of PDE assay buffer was added to substrate control wells.
Binding solution: 3750 μL of binding buffer A and 3750 μL of binding buffer B were mixed well. Then, 150 μL of a binder was added into the mixture and mixed well. 7.5 μL of a Tb donor was added and mixed well. The obtained mixture was added to all wells at 50 μL/well.
S520=Read value of sample 520 nm
S490=Read value of sample 490 nm
Tb520=Read value of Tb only 520 nm
Tb490=Read value of Tb only 490 nm
FRETp=Positive control FRET
FRETsub=Substrate control FRET.

PDE4C1 = target: T1, PDE4C1 (Homo sapiens, UniProt Q08493); experiment: Inhibition assay of PDE4C1 enzyme (FP kit)
T1 construct: purchased BPS 60384
T1 sequence (Q08493 whole entry): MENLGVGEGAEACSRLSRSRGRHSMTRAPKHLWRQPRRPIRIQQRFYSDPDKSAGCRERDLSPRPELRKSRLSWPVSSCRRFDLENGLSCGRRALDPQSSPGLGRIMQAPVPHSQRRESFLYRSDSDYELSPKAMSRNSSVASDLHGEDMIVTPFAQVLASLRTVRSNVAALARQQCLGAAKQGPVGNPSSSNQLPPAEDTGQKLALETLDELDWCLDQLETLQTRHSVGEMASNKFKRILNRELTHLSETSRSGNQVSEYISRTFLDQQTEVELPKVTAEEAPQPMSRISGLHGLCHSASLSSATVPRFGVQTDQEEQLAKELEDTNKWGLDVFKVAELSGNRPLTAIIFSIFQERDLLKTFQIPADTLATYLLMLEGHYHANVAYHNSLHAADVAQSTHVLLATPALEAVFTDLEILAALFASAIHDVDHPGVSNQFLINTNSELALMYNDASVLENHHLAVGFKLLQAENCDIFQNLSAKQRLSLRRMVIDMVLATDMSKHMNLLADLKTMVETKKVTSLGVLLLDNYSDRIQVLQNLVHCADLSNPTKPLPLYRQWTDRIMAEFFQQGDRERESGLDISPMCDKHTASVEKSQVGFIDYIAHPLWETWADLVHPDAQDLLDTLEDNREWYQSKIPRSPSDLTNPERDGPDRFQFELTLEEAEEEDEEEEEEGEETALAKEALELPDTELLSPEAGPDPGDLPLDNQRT
Protocol: 5. Inhibition assay of PDE4C1 enzyme:
as §1
FAM substrate: 12.5 μL of a FAM substrate stock solution was added into 1250 μL of PDE assay buffer. 12.5 μL of the diluted substrate was added to each reaction well.
as §2
PDE4C1: First, a PDE4C1 stock solution was diluted by 100 times to a concentration of 3.2 ng/μL, 13.75 μL of the diluent was added to 1100 μL of PDE assay buffer, and the mixture was added to all compound wells and positive control wells at 10 μL/well. 10 μL of PDE assay buffer was added to substrate control wells.
Binding solution: 50 μL of binder was added into 5 mL of binder diluent, and then mixed well. The obtained mixture was added to all wells at 50 μL/well.
(§3) FPsub=Substrate control FP.

PDE4A1 = target: T2, PDE4A1 (Homo sapiens, UniProt P27815); experiment: Inhibition assay of PDE4A1 enzyme (FP kit)
T2 construct: purchased BPS 60340
Protocol: 3. Inhibition assay of PDE4A1 enzyme:
as §1
(§4) FAM substrate: 25 μL of a FAM substrate stock solution was added into 2500 μL of PDE assay buffer. 25 μL of the diluted substrate was added to each reaction well.
as §2, with “5” for “2.5”
(§5) PDE4A1: First, a PDE4A1 stock solution was diluted by 100 times to a concentration of 4.9 ng/μL, 1.8 μL of the diluent was added to 2200 μL of PDE assay buffer, and the mixture was added to all compound wells and positive control wells at 20 μL/well. 20 μL of PDE assay buffer was added to substrate control wells.
Binding solution: 95 μL of binding buffer was added into 9.5 mL of binder diluent, and then mixed well. The obtained mixture was added to all wells at 100 μL/well.
as §3

PDE4B2 = target: T3, PDE4B2 (Homo sapiens, UniProt Q07343); experiment: Inhibition assay of PDE4B2 enzyme (FP kit)
T3 construct: purchased BPS 60343
Protocol: 4. Inhibition assay of PDE4B2 enzyme:
as §1, §4
as §2, with “5” for “2.5”
as §5, with “PDE4B2:” for “PDE4A1:”, “PDE4B2” for “PDE4A1”, “5.2” for “4.9”, “3.2” for “1.8”
Binding solution: 95 μL of binder was added into 9.5 mL of binder diluent, and then mixed well. The obtained mixture was added to all wells at 100 μL/well.
as §3

PDE1C = PDE1C (Homo sapiens, UniProt Q14123); experiment: Selective inhibitory activity assay, PDE1C; details: read-out: Inhibition rate (%) of PDE1C
PDE1C, sequence (Q14123 whole entry, species assumed): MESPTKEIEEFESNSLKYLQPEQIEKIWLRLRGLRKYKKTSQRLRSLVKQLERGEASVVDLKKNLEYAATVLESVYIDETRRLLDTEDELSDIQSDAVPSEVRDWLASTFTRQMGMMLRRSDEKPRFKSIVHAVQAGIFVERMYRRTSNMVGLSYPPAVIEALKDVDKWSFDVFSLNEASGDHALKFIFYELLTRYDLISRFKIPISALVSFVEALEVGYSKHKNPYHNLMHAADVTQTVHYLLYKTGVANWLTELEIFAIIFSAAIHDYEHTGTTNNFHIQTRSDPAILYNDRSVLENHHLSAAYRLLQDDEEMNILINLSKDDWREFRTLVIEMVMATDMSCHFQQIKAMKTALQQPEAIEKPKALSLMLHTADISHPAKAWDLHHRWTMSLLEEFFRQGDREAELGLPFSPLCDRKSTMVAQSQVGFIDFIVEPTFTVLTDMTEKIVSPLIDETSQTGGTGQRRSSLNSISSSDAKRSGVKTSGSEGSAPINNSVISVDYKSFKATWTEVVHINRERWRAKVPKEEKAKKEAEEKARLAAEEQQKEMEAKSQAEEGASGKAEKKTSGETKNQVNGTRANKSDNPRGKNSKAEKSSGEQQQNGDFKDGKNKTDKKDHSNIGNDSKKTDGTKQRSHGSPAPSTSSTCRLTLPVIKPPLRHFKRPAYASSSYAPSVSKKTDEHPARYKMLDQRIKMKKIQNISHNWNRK
Protocol: (§6) 7. Selective inhibitory activity assay for PDE1, 2, 3, 5, 7, 10 and 11 enzymes
(§7) The selective specificity of compounds for PDE4 was assessed by assaying single concentrations of the compounds. For example, PDE1a enzyme, PDElc enzyme, PDE2a enzyme, PDE3a enzyme, PDE3b enzyme, PDE5a1 enzyme, PDE7a enzyme, PDE7b enzyme, PDE10a1 enzyme and PDE11a4 enzyme were tested. The selective inhibitory effects of different compounds on the enzymatic activities of PDEIC, PDE2A, PDE3B, PDE5A1, PDE7A, and PDE10A1 at concentrations of 10 μM and 1 μM, respectively, are shown in the table below: […]

PDE5A1 = PDE5A1 (Homo sapiens, UniProt O76074); experiment: Selective inhibitory activity assay, PDE5A1; details: read-out: Inhibition rate (%) of PDE5A1
Protocol: as §6, §7

PDE3B = PDE3B (Homo sapiens, UniProt Q13370); experiment: Selective inhibitory activity assay, PDE3B; details: read-out: Inhibition rate (%) of PDE3B
PDE3B, sequence (Q13370 whole entry, species assumed): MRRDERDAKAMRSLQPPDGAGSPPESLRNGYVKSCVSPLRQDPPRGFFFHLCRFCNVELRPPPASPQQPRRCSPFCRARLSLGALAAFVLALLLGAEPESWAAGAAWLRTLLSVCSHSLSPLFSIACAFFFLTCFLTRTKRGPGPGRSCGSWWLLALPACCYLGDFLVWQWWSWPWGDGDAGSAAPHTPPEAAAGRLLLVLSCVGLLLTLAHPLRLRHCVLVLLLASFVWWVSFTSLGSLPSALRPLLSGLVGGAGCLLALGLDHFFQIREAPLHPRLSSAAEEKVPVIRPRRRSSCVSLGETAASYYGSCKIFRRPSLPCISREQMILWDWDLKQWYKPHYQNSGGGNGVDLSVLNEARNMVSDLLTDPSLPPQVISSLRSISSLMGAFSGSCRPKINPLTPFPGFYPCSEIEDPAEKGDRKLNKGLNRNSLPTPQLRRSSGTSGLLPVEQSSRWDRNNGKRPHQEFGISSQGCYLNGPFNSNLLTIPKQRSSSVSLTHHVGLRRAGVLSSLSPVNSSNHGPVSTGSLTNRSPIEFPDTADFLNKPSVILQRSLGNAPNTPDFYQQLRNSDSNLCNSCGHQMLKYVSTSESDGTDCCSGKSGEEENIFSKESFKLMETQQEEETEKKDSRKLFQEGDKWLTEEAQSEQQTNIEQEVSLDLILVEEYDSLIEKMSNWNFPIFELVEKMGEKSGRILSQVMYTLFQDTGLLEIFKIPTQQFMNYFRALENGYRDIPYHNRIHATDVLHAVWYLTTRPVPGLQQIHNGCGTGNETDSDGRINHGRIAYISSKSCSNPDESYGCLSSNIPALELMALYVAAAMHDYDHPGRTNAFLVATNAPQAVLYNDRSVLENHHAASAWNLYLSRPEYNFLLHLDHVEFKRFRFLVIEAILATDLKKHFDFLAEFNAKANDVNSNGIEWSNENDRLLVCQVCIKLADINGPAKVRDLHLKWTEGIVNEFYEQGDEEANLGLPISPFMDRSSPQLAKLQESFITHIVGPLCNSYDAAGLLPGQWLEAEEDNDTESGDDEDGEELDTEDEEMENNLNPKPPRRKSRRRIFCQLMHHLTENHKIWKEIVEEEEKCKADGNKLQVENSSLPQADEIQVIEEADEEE
Protocol: as §6, §7

PDE10A1 = PDE10A1 (Homo sapiens, UniProt Q9Y233); experiment: Selective inhibitory activity assay, PDE10A1; details: read-out: Inhibition rate (%) of PDE10A1
Protocol: as §6, §7

PDE7A = PDE7A (Homo sapiens, UniProt Q13946); experiment: Selective inhibitory activity assay, PDE7A; details: read-out: Inhibition rate (%) of PDE7A
PDE7A, sequence (Q13946 whole entry, species assumed): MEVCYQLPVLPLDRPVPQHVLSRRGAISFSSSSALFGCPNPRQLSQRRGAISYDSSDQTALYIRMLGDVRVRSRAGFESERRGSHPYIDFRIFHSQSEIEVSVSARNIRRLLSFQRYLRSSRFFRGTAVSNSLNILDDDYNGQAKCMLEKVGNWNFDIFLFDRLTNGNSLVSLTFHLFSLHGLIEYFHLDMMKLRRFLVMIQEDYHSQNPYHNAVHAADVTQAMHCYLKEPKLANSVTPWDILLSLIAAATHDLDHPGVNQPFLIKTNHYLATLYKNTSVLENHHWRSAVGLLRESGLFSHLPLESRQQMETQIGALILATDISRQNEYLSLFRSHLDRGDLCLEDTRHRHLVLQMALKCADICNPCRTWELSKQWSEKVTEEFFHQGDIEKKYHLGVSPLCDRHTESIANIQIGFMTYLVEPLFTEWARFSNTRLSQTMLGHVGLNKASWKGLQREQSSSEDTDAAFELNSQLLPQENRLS
Protocol: as §6, §7

PDE2A = PDE2A (Homo sapiens, UniProt O00408); experiment: Selective inhibitory activity assay, PDE2A; details: read-out: Inhibition rate (%) of PDE2A
PDE2A, sequence (O00408 whole entry, species assumed): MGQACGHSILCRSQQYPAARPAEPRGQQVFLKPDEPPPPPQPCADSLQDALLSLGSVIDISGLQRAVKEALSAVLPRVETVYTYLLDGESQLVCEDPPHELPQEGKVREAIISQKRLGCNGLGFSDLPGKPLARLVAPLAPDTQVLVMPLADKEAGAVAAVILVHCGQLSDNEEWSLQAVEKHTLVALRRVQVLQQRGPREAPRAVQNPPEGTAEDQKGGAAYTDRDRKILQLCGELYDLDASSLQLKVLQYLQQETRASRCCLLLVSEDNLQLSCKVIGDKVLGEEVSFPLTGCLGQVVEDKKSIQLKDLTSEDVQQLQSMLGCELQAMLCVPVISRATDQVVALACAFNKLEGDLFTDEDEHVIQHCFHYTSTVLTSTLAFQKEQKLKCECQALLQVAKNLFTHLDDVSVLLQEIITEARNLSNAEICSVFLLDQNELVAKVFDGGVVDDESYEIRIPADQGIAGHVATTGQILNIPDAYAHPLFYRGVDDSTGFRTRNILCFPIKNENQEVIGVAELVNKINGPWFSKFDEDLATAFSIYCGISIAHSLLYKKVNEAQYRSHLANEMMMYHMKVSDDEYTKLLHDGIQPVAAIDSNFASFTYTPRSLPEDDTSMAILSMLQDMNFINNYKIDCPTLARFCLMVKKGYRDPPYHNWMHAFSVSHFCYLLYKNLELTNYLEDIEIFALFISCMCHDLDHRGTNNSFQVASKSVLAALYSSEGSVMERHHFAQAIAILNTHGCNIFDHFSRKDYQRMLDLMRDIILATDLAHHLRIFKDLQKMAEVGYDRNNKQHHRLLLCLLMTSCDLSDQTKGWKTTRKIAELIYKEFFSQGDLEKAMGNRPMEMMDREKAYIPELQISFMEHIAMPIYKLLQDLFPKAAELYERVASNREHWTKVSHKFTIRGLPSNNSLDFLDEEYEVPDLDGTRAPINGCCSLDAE
Protocol: as §6, §7

PDE4D3, sequence (Q08499 1-673 isoform Q08499-2): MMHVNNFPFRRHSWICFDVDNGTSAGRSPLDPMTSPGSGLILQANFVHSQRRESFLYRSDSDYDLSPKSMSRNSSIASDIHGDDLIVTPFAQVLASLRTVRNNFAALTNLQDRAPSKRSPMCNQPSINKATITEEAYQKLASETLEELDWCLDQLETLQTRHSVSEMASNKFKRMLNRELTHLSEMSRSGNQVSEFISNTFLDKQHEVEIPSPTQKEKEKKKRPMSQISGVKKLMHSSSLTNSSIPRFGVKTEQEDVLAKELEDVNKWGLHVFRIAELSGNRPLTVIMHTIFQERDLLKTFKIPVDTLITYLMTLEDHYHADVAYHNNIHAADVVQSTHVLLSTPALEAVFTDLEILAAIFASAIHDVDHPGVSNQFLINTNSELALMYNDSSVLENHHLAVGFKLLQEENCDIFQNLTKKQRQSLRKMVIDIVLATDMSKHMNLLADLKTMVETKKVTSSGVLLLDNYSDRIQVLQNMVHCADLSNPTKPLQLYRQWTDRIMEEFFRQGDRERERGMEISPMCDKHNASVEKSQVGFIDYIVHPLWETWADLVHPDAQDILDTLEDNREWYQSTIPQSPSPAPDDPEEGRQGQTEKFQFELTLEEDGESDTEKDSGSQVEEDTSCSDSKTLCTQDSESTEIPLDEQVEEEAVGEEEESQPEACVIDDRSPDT

Compound | IC50 (PDE4D3) [µM] | IC50 (PDE4C1) [µM] | IC50 (PDE4A1) [µM] | IC50 (PDE4B2) [µM] | inhibition at 1 µM (PDE1C) [%] | inhibition at 10 µM (PDE1C) [%] | inhibition at 1 µM (PDE5A1) [%] | inhibition at 10 µM (PDE5A1) [%] | inhibition at 1 µM (PDE3B) [%] | inhibition at 10 µM (PDE3B) [%] | inhibition at 1 µM (PDE10A1) [%] | inhibition at 10 µM (PDE10A1) [%] | inhibition at 1 µM (PDE7A) [%] | inhibition at 10 µM (PDE7A) [%] | inhibition at 1 µM (PDE2A) [%] | inhibition at 10 µM (PDE2A) [%]
CCCCC(O)c1ccc(NC(C)=O)c2c1C(=O)N([C@H](CS(C)(=O)=O)c1ccc(OC)c(OCC)c1)C2=O (mixture of isomers) [Example 55] | < 0.005 | < 0.2 | < 0.1 | < 0.1 |  |  |  |  |  |  |  |  |  |  |  | 
CCCCCc1ccc(NC(=O)CCCCl)c2c1C(=O)N([C@H](CS(C)(=O)=O)c1ccc(OC)c(OCC)c1)C2=O [Example 5, (S)-2-[1-(3-ethoxy-4-methoxyphenyl)-2-alkylsulfonylethyl]-4-(γ-chlorobutyramido)-7-pentyl isoindoline-1,3-diketone] | 0.01 to 0.05 | 0.2 to 0.5 | < 0.1 | < 0.1 | 8.26 | 30.8 | 0.66 | 8.39 | 0.06 | -0.69 | 2.21 | 5.46 | 0 | 1.94 | 0.83 | 9.01
CCCCCc1ccc(NC(=O)CC)c2c1C(=O)N([C@H](CS(C)(=O)=O)c1ccc(OC)c(OCC)c1)C2=O [Example 13, (S)-2-[1-(3-ethoxy-4-methoxyphenyl)-2-alkylsulfonylethyl]-4-propanamido-7-pentyl isoindoline-1,3-diketone] | 0.01 to 0.05 | 0.2 to 0.5 | 0.1 to 0.2 | 0.1 to 0.2 | 5.34 | 51.7 | 14.1 | 20.3 | 3.31 | 0.94 | 16.3 | -26.7 | 0 | 9.96 | 0.08 | 13.8
CCCCCc1ccc(NC(=O)CCl)c2c1C(=O)N([C@H](CS(C)(=O)=O)c1ccc(OC)c(OCC)c1)C2=O [Example 25, (S)-2-[1-(3-ethoxy-4-methoxyphenyl)-2-alkylsulfonylethyl]-4-(chloroacetamido)-7-pentyl isoindoline-1,3-diketone] | 0.01 to 0.05 |  |  |  | 3.89 | 33.8 | 0 | 8.17 | 0 | 0.19 | 3.02 | 11.1 | 4.98 | 24.6 | 20.4 | 13.4
CCCCc1ccc(NC(=O)CCCCl)c2c1C(=O)N([C@H](CS(C)(=O)=O)c1ccc(OC)c(OCC)c1)C2=O [Example 27, (S)-2-[1-(3-ethoxy-4-methoxyphenyl)-2-alkylsulfonylethyl]-4-(γ-chlorobutyramido)-7-butyl isoindoline-1,3-diketone] | 0.01 to 0.05 |  |  |  | 12.1 | 67.5 | 0 | 8.14 | 0 | -1.31 | 11.9 | 1.01 | 2.21 | 14.7 | 0 | 8.1
CCCCCc1ccc(NC(=O)CF)c2c1C(=O)N([C@H](CS(C)(=O)=O)c1ccc(OC)c(OCC)c1)C2=O [Example 28, (S)-2-[1-(3-ethoxy-4-methoxyphenyl)-2-alkylsulfonylethyl]-4-fluoroacetamido-7-pentyl isoindoline-1,3-diketone] | 0.005 to 0.01 |  |  |  | 1.46 | 24.8 | 0 | 4.16 | 3.69 | 6.44 | 29.1 | 0.04 | 0.55 | 10.5 | 0 | 5.83
C=CC(=O)Nc1ccc(CCCCC)c2c1C(=O)N([C@H](CS(C)(=O)=O)c1ccc(OC)c(OCC)c1)C2=O [Example 29, (S)-2-[1-(3-ethoxy-4-methoxyphenyl)-2-alkylsulfonylethyl]-4-acrylamido-7-pentyl isoindoline-1,3-diketone] | 0.005 to 0.01 |  |  |  | 4.13 | 26 | 5.72 | 13 | 0 | -1.94 | 0 | 16.1 | 17.4 | 19.9 | 7.19 | 15.8
[2H]C([2H])(CCCC)c1ccc(NC(C)=O)c2c1C(=O)N([C@H](CS(C)(=O)=O)c1ccc(OC)c(OCC)c1)C2=O [Example 32] | < 0.005 | < 0.2 | < 0.1 | < 0.1 |  |  |  |  |  |  |  |  |  |  |  | 
[2H]c1c([2H])c(NC(C)=O)c2c(c1CCCCC)C(=O)N([C@H](CS(C)(=O)=O)c1ccc(OC)c(OCC)c1)C2=O [Example 33] | < 0.005 | < 0.2 | < 0.1 | < 0.1 |  |  |  |  |  |  |  |  |  |  |  | 
CCCCC(=O)c1ccc(NC(C)=O)c2c1C(=O)N([C@H](CS(C)(=O)=O)c1ccc(OC)c(OCC)c1)C2=O [Example 56] | 0.01 to 0.05 | 0.2 to 0.5 | < 0.1 | < 0.1 |  |  |  |  |  |  |  |  |  |  |  | 
